Several values for one entry are separate records, joined by “and”; a condition that tells them apart may be missing. Identical values can stand only once. Where a SMILES comes first, the peptide text is derived from it. [ ]: non-standard residue; d: D form. The star is where a group is joined. Nle = CCCC[C@H](N)C(=O)O; Hexanoyl = CCCCCC(=O)*; Ahx = NCCCCCC(=O)O
Assays:
Type in all cases: cell-based, rat
hippocampal neurons [1] = assay: Immunocytochemistry: correlation of spines to synaptic markers (VGLUT1, Synapsin, PSD-95); settings: 5 days; for Number of spines/50 μm (PSD-95 staining experiment) / Number of spines/50 μm (Synapsin staining experiment) / Number of spines/50 μm (VGLUT1 staining experiment): 10^−12 M, N=25
Protocol: (§1) Transfected neurons were treated, fixed and stained. Briefly, cells were permeablized with 0.1% Triton X-100 detergent (Bio-Rad; Hercules, Calif.) for 10 minutes. An 8% bovine serum albumin (Intergen Company; Burlington, Mass.) in PBS was used to prevent non-specific binding for one hour at R.T.; Primary antibody incubations were at a 1:2500 dilution (see below) in 1% BSA in PBS at 4° C. overnight. Secondary antibody, 1:3000 Alexafluor 488 goat-anti-mouse (Invitrogen: Carlsbad, Calif.) was applied for two hours at room temperature. Coverslips were mounted with ProLong Gold anti-fade reagent (Invitrogen; Carlsbad, Calif.) and all washes were done with PBS. Imaging and analysis were performed as described above. For presynaptic excitatory transmission the VGLUT1 (Synaptic Systems, Goettingen, Germany) marker (Balschun, Moechars et al.) was employed and for general presynaptic transmission synapsinl (Synaptic Systems, Goettingen, Germany) (Ferreira and Rapoport 2002) was applied. A postsynaptic function was established by PSD-95 (Milipore, Billerica, Mass.) (El-Husseini, Schnell et al. 2000). In each instance the total number of spines was counted for the treatment groups, control, Nle1-AngIV and Dihexa, to ensure an active phenotype. The total number of actin enriched spines adjacent to VGLUT1 or Synapsin were counted and converted to a percentage as the percent correlation of treatment-induced spines to presynaptic markers is a strong indicator of ability to transmit excitatory signals.
as §1, with “fixed and stained as previously described in Chapter two. Briefly, cells” for “fixed and stained. Briefly, cells”, “enriched spines (red) adjacent to” for “enriched spines adjacent to”

hippocampal neurons [2] = assay: Spinogenesis in mRFP-β-actin transfected dissociated hippocampal neurons; settings: 5 days; for spine numbers per 50 μm dendrite length: biologically active doses, printed as 10^−13 M, control 17.4
Protocol: Hippocampal neurons ([…] cells per square cm) were cultured from P1 Sprague Dawley rats on plates coated with poly-L-lysine from Sigma (St. Louis, Mo.; molecular weight 300,000). Hippocampal neurons were maintained in Neurobasal A media from Invitrogen (Carlsbad, Calif.) supplemented with B27 from Invitrogen, 0.5 mM L-glutamine, and […] cytosine-D-arabinofuranoside from Sigma added at 2 days in vitro. Hippocampal neurons were then cultured a further 3-7 days, at which time they were either transfected or treated with various pharmacological reagents as described in (Wayman, Davare et al. 2008).
Neurons were transfected with mRFP-β-actin on day in vitro 6 (DIV6) using LipofectAMINE™ 2000 (Invitrogen) according to the manufacturer's protocol. This protocol yielded the desired 3-5% transfection efficiency thus enabling the visualization of individual neurons. Higher efficiencies obscured the dendritic arbor of individual neurons. Expression of fluorescently tagged actin allowed clear visualization of dendritic spines, as dendritic spines are enriched in actin. On DIV7 the cells were treated with vehicle (H20) or peptides (as described in the text) added to media. On DIV12 the neurons were fixed (4% paraformaldehyde, 3% sucrose, 60 mM PIPES, 25 mM HEPES, 5 mM EGTA, 1 mM MgCl2, pH 7.4) for 20 min at room temperature and mounted. Slides were dried for at least 20 hours at 4° C. and fluorescent images were obtained with Slidebook 4.2 Digital Microscopy Software driving an Olympus IX81 inverted confocal microscope with a 60× oil immersion lens, NA 1.4 and resolution 0.280 μm Dendritic spine density was measured on primary and secondary dendrites at a distance of at least 150 μm from the soma. Five 50 μm long segments of dendrite from at least 10 neurons per data point were analyzed for each data point reported. Each experiment was repeated at least three times using independent culture preparations. Dendrite length was determined using the National Institutes of Health's Image J 1.41o program (NIH, Bethesda, Md.) and the neurite tracing program Neuron J (Meijering, Jacob et al. 2004) Spines were manually counted.
Hippocampal neurons (2×10^5 cells per square centimeter) were cultured from P1-2 Sprague Dawley rats on plates coated with poly-L-lysine from Sigma (St. Louis, Mo.; molecular weight 300,000). Hippocampal neurons were maintained in Neurobasal A media from Invitrogen (Carlsbad, Calif.) supplemented with B27 from Invitrogen, 0.5 mM L-glutamine, and […] cytosine-D-arabinofuranoside from Sigma added at 2 days in vitro. Hippocampal neurons were then cultured a further 3-7 days, at which time they were either transfected or treated with various pharmacological reagents as described in the text or figure legends.

CA1 hippocampal neurons = assay: Spinogenesis in organotypic hippocampal slice cultures (CA1 neurons); settings: for spines per 50 μm dendrite length, CA1 neurons: 10-12 M, 2 day treatment, control 7; for mean spine numbers per 50 μm dendrite length, CA1 neurons: 10^−12 M Dihexa or 10 ng/ml HGF, 48 hours, control 6.1
Protocol: (§2) Hippocampi from P4 Sprague Dawley rats were cultured as previously described (Wayman, Impey et al. 2006). Briefly, 400 μm slices were cultured on (Milipore, Billerica, Mass.) for 3 days after which they were biolistically transfected with tomato fluorescent protein (TFP) using a Helios Gen Gun (BioRad, Hercules, Calif.), according to the manufacturer's protocol, to visualize dendritic arbors. Following a 24 hour recovery period slices were stimulated with vehicle (H2O), 1 pM Nle1-AngIV or Dihexa for 2 days. Slices were fixed and mounted. Hippocampal CA1 neuronal processes were imaged and measured as described above.
as §2, with “Gene” for “Gen”, “with” for “with vehicle (H2O),”

CCCCCC(=O)N[C@@H](Cc1ccc(O)cc1)C(=O)N[C@H](C(=O)NCCCCCC(N)=O)[C@@H](C)CC [Dihexa, N-hexanoic-Tyr-Ile-(6)-aminohexanoic amide] (Hexanoyl-Tyr-Ile-[Ahx]-NH2)
Number of spines/50 μm (PSD-95 staining experiment) (hippocampal neurons [1]): 43 spines/50 μm
Number of spines/50 μm (Synapsin staining experiment) (hippocampal neurons [1]): 37 spines/50 μm
Number of spines/50 μm (VGLUT1 staining experiment) (hippocampal neurons [1]): 44 spines/50 μm
spine numbers per 50 μm dendrite length (hippocampal neurons [2]): 26.4
spines per 50 μm dendrite length, CA1 neurons (CA1 hippocampal neurons): 11 spines per 50 μm dendrite length
mean spine numbers per 50 μm dendrite length, CA1 neurons (CA1 hippocampal neurons): 15.0

CCCC[C@H](N)C(=O)N[C@@H](Cc1ccc(O)cc1)C(=O)N[C@H](C(=O)N[C@@H](Cc1c[nH]cn1)C(=O)N1CCC[C@H]1C(=O)N[C@@H](Cc1ccccc1)C(=O)O)[C@@H](C)CC [Nle1-AngIV, reference compound] (H-[Nle]YIHPF-OH; N-terminus and C-terminus assumed)
Number of spines/50 μm (PSD-95 staining experiment) (hippocampal neurons [1]): 36 spines/50 μm
Number of spines/50 μm (Synapsin staining experiment) (hippocampal neurons [1]): 31 spines/50 μm
Number of spines/50 μm (VGLUT1 staining experiment) (hippocampal neurons [1]): 39 spines/50 μm
spine numbers per 50 μm dendrite length (hippocampal neurons [2]): 29.8
spines per 50 μm dendrite length, CA1 neurons (CA1 hippocampal neurons): 11 spines per 50 μm dendrite length

HGF: recombinant hepatocyte growth factor (R&D Systems), ligand of c-Met
correlation between presynaptic marker Synapsin and postsynaptic spines (hippocampal neurons [1]; HGF 10 ng/ml, vehicle 94%): 98%
mean spine numbers per 50 μm dendrite length (hippocampal neurons [2]; HGF 5 ng/ml): 24.7
mean spine numbers per 50 μm dendrite length (hippocampal neurons [2]; HGF 10 ng/ml): 27.5 and 33 and 29.3
mean spine numbers per 50 μm dendrite length (hippocampal neurons [2]; HGF 20 ng/ml): 27.0
mean spine numbers per 50 μm dendrite length, CA1 neurons (CA1 hippocampal neurons): 18.5
